Source: US7795295B2, “Small molecule inhibition of PDZ-domain interaction” (The Regents of the University of California, priority 2004, dated 2010)

The compounds below were run on H460 cells (assay: Apoptosis by Annexin V FITC flow cytometry, H460). Details: Assay 1, library 1; 10 μM for 3 days; control 9.22.
Format: cell-based, human
Protocol: (§1) Compound 1 and other compounds of Tables 1A and 1B were similarly tested for apoptotic effects to represent the inhibitory effects of compounds on interaction between the PDZ domain of the Dishevelled (Dvl) protein and the Fz protein (Wnt receptor). Cell lines H460 and LOX were utilized, with the test compound being applied at 10 μM for 3 days. Cultured cells treated with the test compounds in the culture media were harvested by trypsinization and stained using an Annexin V FITC Apoptosis Detection kit (Oncogene Science, Cambridge, Mass.), according to the manufacturer's protocol. Stained cells were immediately analyzed by flow cytometry (FACScan; Becton-Dickinson, Franklin Lake, N.J.).

Structure (SMILES)	apoptosis, % H460
Cc1cc2[nH]c(C(O)CC(C)C)c(CCc3ccccc3)c2cc1C(=O)O (centres unmarked) [Compound 2]	34.21%
Cc1cc2[nH]c(C(=O)CC3CCCC3)c(CCc3ccccc3)c2cc1C(=O)O [Compound 29]	64.1%
CCC(C)C(=O)c1[nH]c2cc(C)c(C(=O)O)cc2c1CCc1ccccc1 (centres unmarked) [Compound 28]	58.76%
CCCCC(=O)c1[nH]c2cc(C)c(C(=O)OC)cc2c1CCc1ccccc1 [Compound 7]	13.92%
Cc1cc2[nH]c(C(=O)CCCC(=O)O)c(CCc3ccccc3)c2cc1C(=O)O [Compound 31]	9.07%
Cc1cc2[nH]c(C(=O)CCc3ccccc3)c(CCc3ccccc3)c2cc1C(=O)O [Compound 34]	76.59%
CCC(C)C(O)c1[nH]c2cc(C)c(C(=O)O)cc2c1CCc1ccccc1 (centres unmarked) [Compound 3]	79.9%
Cc1cc2[nH]c(C(O)CCCC(=O)O)c(CCc3ccccc3)c2cc1C(=O)O (centres unmarked) [Compound 6]	8.62%
Cc1cc2[nH]c(C(=O)c3ccccc3)c(CCc3ccccc3)c2cc1C(=O)O [Compound 32]	21.13%
CCCCC(=O)c1[nH]c2cc(C)c(C(=O)O)cc2c1CCc1ccccc1 [Compound 26]	16.13%
Cc1cc2[nH]c(C(=O)CC(C)C)c(CCc3ccccc3)c2cc1C(=O)O [Compound 27]	16.91%
Cc1cc2[nH]c(C(=O)C3CCCCC3)c(CCc3ccccc3)c2cc1C(=O)O [Compound 30]	78.07%
Cc1cc2[nH]c(C(=O)Cc3ccccc3)c(CCc3ccccc3)c2cc1C(=O)O [Compound 33]	12.66%
Cc1cc2[nH]c(C(O)CC3CCCC3)c(CCc3ccccc3)c2cc1C(=O)O (centres unmarked) [Compound 4]	36.41%
Cc1cc2[nH]c(C(O)C3CCCCC3)c(CCc3ccccc3)c2cc1C(=O)O (centres unmarked) [Compound 5]	24.39%

Same assay, conditions: Assay 2, library 2; 10 μM for 3 days; control 10.24

Structure (SMILES)	apoptosis, % H460
CCCCC(O)c1[nH]c2cc(C)c(C(=O)O)cc2c1CCCc1ccccc1 (centres unmarked) [Compound 15]	37.4%
CCCCC(=O)c1[nH]c2cc(C)c(C(=O)O)cc2c1Cc1ccccc1 [Compound 39]	42.9%
CCCCC(=O)c1[nH]c2cc(C)c(C(=O)O)cc2c1CCCC(=O)O [Compound 42]	49.41%
CCCCC(O)c1[nH]c2cc(C)c(C(=O)O)cc2c1C1CCCCC1 (centres unmarked) [Compound 12]	28.8%
CCCCC(=O)c1[nH]c2cc(C)c(C(=O)O)cc2c1CC(C)C [Compound 36]	41.48%
CCCCC(=O)c1[nH]c2cc(C)c(C(=O)O)cc2c1CCCO [Compound 41]	19.96%
CCCCC(O)c1[nH]c2cc(C)c(C(=O)O)cc2c1CC(C)C (centres unmarked) [Compound 11]	24.48%
CCCCC(=O)c1[nH]c2cc(C)c(C(=O)O)cc2c1-c1ccccc1 [Compound 38]	51.61%
CCCCCc1c(C(=O)CCCC)[nH]c2cc(C)c(C(=O)O)cc12 [Compound 35]	34.73%
CCCCCc1c(C(O)CCCC)[nH]c2cc(C)c(C(=O)O)cc12 (centres unmarked) [Compound 10]	39.64%
CCCCC(O)c1[nH]c2cc(C)c(C(=O)O)cc2c1-c1ccccc1 (centres unmarked) [Compound 13]	35.51%
CCCCC(O)c1[nH]c2cc(C)c(C(=O)O)cc2c1CCCC(=O)O (centres unmarked) [Compound 17]	18.93%
CCCCC(=O)c1[nH]c2cc(C)c(C(=O)O)cc2c1C1CCCCC1 [Compound 37]	45.05%
CCCCC(=O)c1[nH]c2cc(C)c(C(=O)O)cc2c1CCCc1ccccc1 [Compound 40]	23.93%
CCCCC(O)c1[nH]c2cc(C)c(C(=O)O)cc2c1CCCO (centres unmarked) [Compound 16]	15.7%
CCCCC(O)c1[nH]c2cc(C)c(C(=O)O)cc2c1Cc1ccccc1 (centres unmarked) [Compound 14]	24.26%

Same assay, conditions: Assay 3, library 3; 10 μM for 3 days; control 7.59

Structure (SMILES)	apoptosis, % H460
CCC(C)C(O)c1[nH]c2cc(C)c(C(=O)O)cc2c1-c1ccccc1 (centres unmarked) [Compound 19]	44.15%
CCC(C)C(=O)c1[nH]c2cc(C)c(C(=O)O)cc2c1-c1ccccc1 (centres unmarked) [Compound 44]	37.38%
Cc1cc2[nH]c(C(=O)C(C)C)c(-c3ccccc3)c2cc1C(=O)O [Compound 45]	96.96%
Cc1cc2[nH]c(C(O)C(C)C)c(-c3ccccc3)c2cc1C(=O)O (centres unmarked) [Compound 20]	28.9%
Cc1cc2[nH]c(C(=O)CCCc3ccccc3)c(-c3ccccc3)c2cc1C(=O)O [Compound 50]	41.75%
Cc1cc2[nH]c(C(O)CC(C)(C)C)c(-c3ccccc3)c2cc1C(=O)O (centres unmarked) [Compound 23]	12.09%
Cc1cc2[nH]c(C(O)C3CCCCC3)c(-c3ccccc3)c2cc1C(=O)O (centres unmarked) [Compound 22]	16.22%
Cc1cc2[nH]c(C(O)CC(C)C)c(-c3ccccc3)c2cc1C(=O)O (centres unmarked) [Compound 18]	21.11%
Cc1cc2[nH]c(C(O)CCc3ccccc3)c(-c3ccccc3)c2cc1C(=O)O (centres unmarked) [Compound 24]	26.58%
Cc1cc2[nH]c(C(=O)CC3CCCC3)c(-c3ccccc3)c2cc1C(=O)O [Compound 46]	39.06%
Cc1cc2[nH]c(C(=O)CC(C)C)c(-c3ccccc3)c2cc1C(=O)O [Compound 43]	34.22%
Cc1cc2[nH]c(C(=O)CC(C)(C)C)c(-c3ccccc3)c2cc1C(=O)O [Compound 48]	24.48%
Cc1cc2[nH]c(C(O)CC3CCCC3)c(-c3ccccc3)c2cc1C(=O)O (centres unmarked) [Compound 21]	31.22%
Cc1cc2[nH]c(C(=O)CCc3ccccc3)c(-c3ccccc3)c2cc1C(=O)O [Compound 49]	82.53%
Cc1cc2[nH]c(C(=O)C3CCCCC3)c(-c3ccccc3)c2cc1C(=O)O [Compound 47]	49.77%

These compounds were tested on LOX cells (assay: Apoptosis by Annexin V FITC flow cytometry, LOX). Details: Assay 1, library 1; 10 μM for 3 days; control 10.85.
Format: cell-based, human
Protocol: as §1

Structure (SMILES)	apoptosis, % LOX
Cc1cc2[nH]c(C(O)CC(C)C)c(CCc3ccccc3)c2cc1C(=O)O (centres unmarked) [Compound 2]	36.32%
Cc1cc2[nH]c(C(=O)CC3CCCC3)c(CCc3ccccc3)c2cc1C(=O)O [Compound 29]	74.11%
CCC(C)C(=O)c1[nH]c2cc(C)c(C(=O)O)cc2c1CCc1ccccc1 (centres unmarked) [Compound 28]	38.53%
CCCCC(=O)c1[nH]c2cc(C)c(C(=O)OC)cc2c1CCc1ccccc1 [Compound 7]	17.96%
Cc1cc2[nH]c(C(=O)CCCC(=O)O)c(CCc3ccccc3)c2cc1C(=O)O [Compound 31]	12.06%
Cc1cc2[nH]c(C(=O)CCc3ccccc3)c(CCc3ccccc3)c2cc1C(=O)O [Compound 34]	44.73%
CCC(C)C(O)c1[nH]c2cc(C)c(C(=O)O)cc2c1CCc1ccccc1 (centres unmarked) [Compound 3]	56.29%
Cc1cc2[nH]c(C(O)CCCC(=O)O)c(CCc3ccccc3)c2cc1C(=O)O (centres unmarked) [Compound 6]	9.22%
Cc1cc2[nH]c(C(=O)c3ccccc3)c(CCc3ccccc3)c2cc1C(=O)O [Compound 32]	15.36%
CCCCC(=O)c1[nH]c2cc(C)c(C(=O)O)cc2c1CCc1ccccc1 [Compound 26]	16.86%
Cc1cc2[nH]c(C(=O)CC(C)C)c(CCc3ccccc3)c2cc1C(=O)O [Compound 27]	18.5%
Cc1cc2[nH]c(C(=O)C3CCCCC3)c(CCc3ccccc3)c2cc1C(=O)O [Compound 30]	55.76%
Cc1cc2[nH]c(C(=O)Cc3ccccc3)c(CCc3ccccc3)c2cc1C(=O)O [Compound 33]	15.03%
Cc1cc2[nH]c(C(O)CC3CCCC3)c(CCc3ccccc3)c2cc1C(=O)O (centres unmarked) [Compound 4]	32.52%
Cc1cc2[nH]c(C(O)C3CCCCC3)c(CCc3ccccc3)c2cc1C(=O)O (centres unmarked) [Compound 5]	27.15%

Same assay, conditions: Assay 2, library 2; 10 μM for 3 days; control 9.67

Structure (SMILES)	apoptosis, % LOX
CCCCC(O)c1[nH]c2cc(C)c(C(=O)O)cc2c1CCCc1ccccc1 (centres unmarked) [Compound 15]	17.57%
CCCCC(=O)c1[nH]c2cc(C)c(C(=O)O)cc2c1Cc1ccccc1 [Compound 39]	29.35%
CCCCC(=O)c1[nH]c2cc(C)c(C(=O)O)cc2c1CCCC(=O)O [Compound 42]	15.22%
CCCCC(O)c1[nH]c2cc(C)c(C(=O)O)cc2c1C1CCCCC1 (centres unmarked) [Compound 12]	15.83%
CCCCC(=O)c1[nH]c2cc(C)c(C(=O)O)cc2c1CC(C)C [Compound 36]	13.51%
CCCCC(=O)c1[nH]c2cc(C)c(C(=O)O)cc2c1CCCO [Compound 41]	12.69%
CCCCC(O)c1[nH]c2cc(C)c(C(=O)O)cc2c1CC(C)C (centres unmarked) [Compound 11]	14.83%
CCCCC(=O)c1[nH]c2cc(C)c(C(=O)O)cc2c1-c1ccccc1 [Compound 38]	13.58%
CCCCCc1c(C(=O)CCCC)[nH]c2cc(C)c(C(=O)O)cc12 [Compound 35]	23.23%
CCCCCc1c(C(O)CCCC)[nH]c2cc(C)c(C(=O)O)cc12 (centres unmarked) [Compound 10]	19.08%
CCCCC(O)c1[nH]c2cc(C)c(C(=O)O)cc2c1-c1ccccc1 (centres unmarked) [Compound 13]	17.84%
CCCCC(O)c1[nH]c2cc(C)c(C(=O)O)cc2c1CCCC(=O)O (centres unmarked) [Compound 17]	15.62%
CCCCC(=O)c1[nH]c2cc(C)c(C(=O)O)cc2c1C1CCCCC1 [Compound 37]	7.49%
CCCCC(=O)c1[nH]c2cc(C)c(C(=O)O)cc2c1CCCc1ccccc1 [Compound 40]	16.5%
CCCCC(O)c1[nH]c2cc(C)c(C(=O)O)cc2c1CCCO (centres unmarked) [Compound 16]	14.5%
CCCCC(O)c1[nH]c2cc(C)c(C(=O)O)cc2c1Cc1ccccc1 (centres unmarked) [Compound 14]	11.88%

Same assay, conditions: Assay 3, library 3; 10 μM for 3 days; control 8.81

Structure (SMILES)	apoptosis, % LOX
CCC(C)C(O)c1[nH]c2cc(C)c(C(=O)O)cc2c1-c1ccccc1 (centres unmarked) [Compound 19]	47.62%
CCC(C)C(=O)c1[nH]c2cc(C)c(C(=O)O)cc2c1-c1ccccc1 (centres unmarked) [Compound 44]	54.13%
Cc1cc2[nH]c(C(=O)C(C)C)c(-c3ccccc3)c2cc1C(=O)O [Compound 45]	86.71%
Cc1cc2[nH]c(C(O)C(C)C)c(-c3ccccc3)c2cc1C(=O)O (centres unmarked) [Compound 20]	11.77%
Cc1cc2[nH]c(C(=O)CCCc3ccccc3)c(-c3ccccc3)c2cc1C(=O)O [Compound 50]	72.47%
Cc1cc2[nH]c(C(O)CC(C)(C)C)c(-c3ccccc3)c2cc1C(=O)O (centres unmarked) [Compound 23]	11.34%
Cc1cc2[nH]c(C(O)C3CCCCC3)c(-c3ccccc3)c2cc1C(=O)O (centres unmarked) [Compound 22]	15.47%
Cc1cc2[nH]c(C(O)CC(C)C)c(-c3ccccc3)c2cc1C(=O)O (centres unmarked) [Compound 18]	9.53%
Cc1cc2[nH]c(C(O)CCc3ccccc3)c(-c3ccccc3)c2cc1C(=O)O (centres unmarked) [Compound 24]	26.56%
Cc1cc2[nH]c(C(=O)CC3CCCC3)c(-c3ccccc3)c2cc1C(=O)O [Compound 46]	38.6%
Cc1cc2[nH]c(C(=O)CC(C)C)c(-c3ccccc3)c2cc1C(=O)O [Compound 43]	20.24%
Cc1cc2[nH]c(C(=O)CC(C)(C)C)c(-c3ccccc3)c2cc1C(=O)O [Compound 48]	15.14%
Cc1cc2[nH]c(C(O)CC3CCCC3)c(-c3ccccc3)c2cc1C(=O)O (centres unmarked) [Compound 21]	19.99%
Cc1cc2[nH]c(C(=O)CCc3ccccc3)c(-c3ccccc3)c2cc1C(=O)O [Compound 49]	96.34%
Cc1cc2[nH]c(C(=O)C3CCCCC3)c(-c3ccccc3)c2cc1C(=O)O [Compound 47]	73.02%
